Measurements: article PMC7392148 (Bioorganic & medicinal chemistry, 2020)

What was measured:
[1] = system: panel of 168 GPCRs; assay: PathHunter β-arrestin cell-based assays, antagonist primary screen; conditions: for antagonistic activity in the primary screen: 20 μM, significant = ≥80% inhibition; for hit rate: from the 168 GPCRs tested; for number of GPCRs antagonized at ≥80% inhibition: primary screen at 20 μM
[2] = biological target: T1, 5-hydroxytryptamine (serotonin) receptor (HTR2C) (Homo sapiens, UniProt P28335); assay: PathHunter β-arrestin antagonist assay; format: cell-based
T1 sequence (P28335 33-458): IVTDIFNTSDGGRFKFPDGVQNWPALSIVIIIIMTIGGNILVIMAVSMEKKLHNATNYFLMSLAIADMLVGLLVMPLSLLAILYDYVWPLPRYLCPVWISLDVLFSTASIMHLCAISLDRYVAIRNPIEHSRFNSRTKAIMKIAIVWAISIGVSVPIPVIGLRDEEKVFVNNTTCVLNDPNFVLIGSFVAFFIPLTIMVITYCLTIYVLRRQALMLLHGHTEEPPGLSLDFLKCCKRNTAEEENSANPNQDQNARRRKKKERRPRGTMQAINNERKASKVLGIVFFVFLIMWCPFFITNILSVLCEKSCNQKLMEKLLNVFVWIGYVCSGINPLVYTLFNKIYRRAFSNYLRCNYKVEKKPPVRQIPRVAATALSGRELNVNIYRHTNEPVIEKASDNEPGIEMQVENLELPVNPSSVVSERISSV

[3] = biological target: T2, CX3CR1 (Homo sapiens, UniProt P49238); assay: PathHunter β-arrestin antagonist assay; format: cell-based
T2 sequence (P49238 1-355): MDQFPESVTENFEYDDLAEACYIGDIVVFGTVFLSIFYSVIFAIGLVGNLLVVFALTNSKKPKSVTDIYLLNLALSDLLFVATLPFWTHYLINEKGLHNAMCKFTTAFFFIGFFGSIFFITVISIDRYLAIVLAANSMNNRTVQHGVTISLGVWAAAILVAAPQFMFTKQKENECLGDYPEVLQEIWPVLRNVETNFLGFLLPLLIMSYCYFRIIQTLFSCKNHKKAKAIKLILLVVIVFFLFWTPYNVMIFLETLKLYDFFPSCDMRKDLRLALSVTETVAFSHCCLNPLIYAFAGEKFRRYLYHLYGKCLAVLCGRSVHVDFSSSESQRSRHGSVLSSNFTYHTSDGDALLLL

[4] = biological target: T3, chemokine receptor CCR3 (Homo sapiens, UniProt P51677); assay: PathHunter β-arrestin antagonist assay; format: cell-based
T3 sequence (P51677 1-355): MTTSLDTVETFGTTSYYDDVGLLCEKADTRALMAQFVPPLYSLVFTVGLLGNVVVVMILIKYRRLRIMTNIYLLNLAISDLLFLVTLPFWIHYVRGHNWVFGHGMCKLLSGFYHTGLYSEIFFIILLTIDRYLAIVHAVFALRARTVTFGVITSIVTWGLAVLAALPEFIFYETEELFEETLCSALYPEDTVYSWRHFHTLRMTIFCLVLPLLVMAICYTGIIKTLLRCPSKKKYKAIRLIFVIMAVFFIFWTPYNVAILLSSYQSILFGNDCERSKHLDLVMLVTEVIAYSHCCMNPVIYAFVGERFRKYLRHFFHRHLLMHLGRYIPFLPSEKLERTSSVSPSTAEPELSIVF

[5] = biological target: chemokine receptor CCR8 (Homo sapiens, UniProt P51685); assay: PathHunter β-arrestin antagonist assay; format: cell-based
chemokine receptor CCR8, sequence (P51685 whole entry): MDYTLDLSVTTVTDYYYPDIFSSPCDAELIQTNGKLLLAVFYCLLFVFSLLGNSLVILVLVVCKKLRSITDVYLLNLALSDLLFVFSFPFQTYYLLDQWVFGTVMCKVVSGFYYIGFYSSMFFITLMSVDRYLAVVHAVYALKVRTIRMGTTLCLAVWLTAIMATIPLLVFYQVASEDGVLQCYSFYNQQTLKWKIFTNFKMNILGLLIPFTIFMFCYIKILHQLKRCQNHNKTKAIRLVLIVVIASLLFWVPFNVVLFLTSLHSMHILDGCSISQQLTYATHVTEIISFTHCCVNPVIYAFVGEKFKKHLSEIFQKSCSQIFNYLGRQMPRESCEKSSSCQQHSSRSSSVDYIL

[6] = biological target: CXCR4 (Homo sapiens, UniProt P61073); assay: PathHunter β-arrestin antagonist assay; format: cell-based
CXCR4, sequence (P61073 whole entry): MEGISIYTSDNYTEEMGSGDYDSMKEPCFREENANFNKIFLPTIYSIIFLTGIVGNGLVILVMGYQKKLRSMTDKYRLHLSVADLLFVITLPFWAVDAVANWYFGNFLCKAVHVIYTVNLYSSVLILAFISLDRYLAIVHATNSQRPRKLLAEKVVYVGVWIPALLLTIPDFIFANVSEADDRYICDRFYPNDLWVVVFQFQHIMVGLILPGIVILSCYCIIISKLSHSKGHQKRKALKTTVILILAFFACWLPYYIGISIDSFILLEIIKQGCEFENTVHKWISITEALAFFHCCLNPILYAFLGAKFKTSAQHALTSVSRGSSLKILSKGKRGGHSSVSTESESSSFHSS

[7] = biological target: T4, oxytocin receptor (OXTR) (Homo sapiens, UniProt P30559); assay: PathHunter β-arrestin antagonist assay; format: cell-based
T4 sequence (P30559 1-389): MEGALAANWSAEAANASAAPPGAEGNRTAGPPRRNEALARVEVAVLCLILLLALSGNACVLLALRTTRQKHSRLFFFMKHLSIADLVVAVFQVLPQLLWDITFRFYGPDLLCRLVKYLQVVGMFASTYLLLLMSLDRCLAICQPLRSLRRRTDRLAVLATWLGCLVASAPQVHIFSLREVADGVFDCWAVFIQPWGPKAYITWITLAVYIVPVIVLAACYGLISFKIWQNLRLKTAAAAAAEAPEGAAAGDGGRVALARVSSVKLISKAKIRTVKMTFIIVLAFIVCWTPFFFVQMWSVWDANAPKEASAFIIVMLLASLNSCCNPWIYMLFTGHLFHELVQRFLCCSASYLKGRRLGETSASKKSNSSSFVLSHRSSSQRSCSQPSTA

[8] = system: dopamine D2b receptor (DRD2L); assay: PathHunter β-arrestin antagonist assay; format: cell-based; conditions: primary screen at 20 μM
[9] = biological target: AVPR2 (Homo sapiens, UniProt P30518); assay: PathHunter β-arrestin antagonist assay; format: cell-based
AVPR2, sequence (P30518 whole entry): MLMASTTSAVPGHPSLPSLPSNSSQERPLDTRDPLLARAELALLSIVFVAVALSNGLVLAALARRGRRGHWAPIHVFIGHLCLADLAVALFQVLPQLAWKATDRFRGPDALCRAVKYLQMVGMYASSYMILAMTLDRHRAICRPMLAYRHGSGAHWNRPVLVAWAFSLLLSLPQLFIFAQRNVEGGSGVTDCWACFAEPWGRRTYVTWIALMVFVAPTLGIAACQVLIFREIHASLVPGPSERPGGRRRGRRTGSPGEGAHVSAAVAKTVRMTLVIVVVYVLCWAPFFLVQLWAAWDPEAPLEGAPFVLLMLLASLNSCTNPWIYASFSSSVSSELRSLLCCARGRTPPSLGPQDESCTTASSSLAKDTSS

[10] = system: hydroxytryptamine receptor (HTR1B); assay: PathHunter β-arrestin antagonist assay; format: cell-based; conditions: primary screen at 20 μM
[11] = system: ADRA2A; assay: PathHunter β-arrestin antagonist assay; format: cell-based; conditions: primary screen at 20 μM
[12] = system: AVPR1B; assay: PathHunter β-arrestin antagonist assay; format: cell-based; conditions: primary screen at 20 μM
[13] = system: AVPR1A; assay: PathHunter β-arrestin antagonist assay; format: cell-based; conditions: primary screen at 20 μM
[14] = biological target: T5, neuropeptide S receptor 1 (NPSR1B) (Homo sapiens, UniProt Q6W5P4); assay: PathHunter β-arrestin antagonist assay; format: cell-based
T5 sequence (Q6W5P4 1-377 isoform Q6W5P4-4): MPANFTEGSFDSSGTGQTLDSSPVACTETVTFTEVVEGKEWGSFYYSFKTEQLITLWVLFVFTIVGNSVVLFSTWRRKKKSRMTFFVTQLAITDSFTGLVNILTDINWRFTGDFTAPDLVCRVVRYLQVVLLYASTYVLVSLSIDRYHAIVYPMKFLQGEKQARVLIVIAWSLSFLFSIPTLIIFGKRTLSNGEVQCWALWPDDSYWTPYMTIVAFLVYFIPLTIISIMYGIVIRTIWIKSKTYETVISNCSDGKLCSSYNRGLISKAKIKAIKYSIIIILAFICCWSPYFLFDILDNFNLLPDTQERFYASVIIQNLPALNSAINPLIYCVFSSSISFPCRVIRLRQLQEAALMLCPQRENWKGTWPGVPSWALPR

[15] = biological target: T6, follicle-stimulating hormone receptor (FSHR) (Homo sapiens, UniProt P23945); assay: PathHunter β-arrestin antagonist assay; format: cell-based
T6 sequence (P23945 18-695): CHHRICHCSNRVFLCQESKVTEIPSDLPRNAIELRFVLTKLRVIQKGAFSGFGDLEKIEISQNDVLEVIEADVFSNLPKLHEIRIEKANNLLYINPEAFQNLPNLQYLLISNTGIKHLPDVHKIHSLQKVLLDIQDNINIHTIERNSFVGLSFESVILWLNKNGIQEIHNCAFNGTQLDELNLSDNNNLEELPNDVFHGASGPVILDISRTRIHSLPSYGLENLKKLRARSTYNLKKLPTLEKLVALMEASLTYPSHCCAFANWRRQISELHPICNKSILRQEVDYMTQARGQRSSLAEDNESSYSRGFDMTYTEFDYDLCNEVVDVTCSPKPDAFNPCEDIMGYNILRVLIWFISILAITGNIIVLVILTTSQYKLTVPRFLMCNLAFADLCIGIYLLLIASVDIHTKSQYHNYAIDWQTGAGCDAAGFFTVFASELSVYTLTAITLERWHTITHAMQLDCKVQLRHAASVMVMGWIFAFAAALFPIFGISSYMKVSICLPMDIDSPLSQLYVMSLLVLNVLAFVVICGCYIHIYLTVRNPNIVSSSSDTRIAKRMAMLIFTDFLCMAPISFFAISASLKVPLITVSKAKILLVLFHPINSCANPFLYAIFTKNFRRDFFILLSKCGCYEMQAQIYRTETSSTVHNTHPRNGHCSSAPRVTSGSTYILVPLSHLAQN

[16] = biological target: T7, prolactin releasing hormone receptor (PRLHR) (Homo sapiens, UniProt P49683); assay: PathHunter β-arrestin antagonist assay; format: cell-based
T7 sequence (P49683 1-370): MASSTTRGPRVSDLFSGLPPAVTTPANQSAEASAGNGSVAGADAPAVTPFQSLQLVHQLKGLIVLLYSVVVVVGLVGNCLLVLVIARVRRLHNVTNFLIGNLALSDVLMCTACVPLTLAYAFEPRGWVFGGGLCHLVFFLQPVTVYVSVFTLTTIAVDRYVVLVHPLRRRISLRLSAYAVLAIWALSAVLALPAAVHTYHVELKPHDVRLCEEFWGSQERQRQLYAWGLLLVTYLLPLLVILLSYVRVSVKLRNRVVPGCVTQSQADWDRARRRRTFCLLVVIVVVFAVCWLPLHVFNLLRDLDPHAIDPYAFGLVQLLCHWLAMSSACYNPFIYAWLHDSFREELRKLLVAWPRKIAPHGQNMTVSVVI

With COC(=O)[C@@H]1[C@H]2C[C@@H]3OCc4ccccc4-n4c3c(c3ccccc34)CCN(C#N)C[C@@H]2CC[C@@H]1O [Y4a] the “antagonistic activity in the primary screen” value [1] was “inactive”.

COC(=O)[C@@H]1[C@H]2C[C@@H](c3[nH]c4ccccc4c3CCn3cc(-c4cccc(Cl)c4)nn3)N(C#N)C[C@@H]2CC[C@@H]1O [Y1f] showed an inhibition at 20 µM [2] of at least 80%, an inhibition at 20 µM [3] of at least 80% and an inhibition at 20 µM [4] of at least 80%. For the same compound, the “antagonistic activity in the primary screen” value [1] was “significant inhibitory activities”, the hit rate [1] was 3.0% and the “number of GPCRs antagonized at ≥80% inhibition” value [1] was “five”. For the same compound, the inhibition at 20 µM [5] was at least 80% and the inhibition at 20 µM [6] was at least 80%.

COC(=O)[C@@H]1[C@H]2C[C@H]3c4[nH]c5ccccc5c4CCN3C[C@@H]2CC[C@@H]1O [yohimbine, reference compound] was tested, and the inhibition at 20 µM [7] was at most 5%, the “antagonistic activity in the GPCR screen” value [8] was “inhibited” and the inhibition at 20 µM [9] was at most 5%. The “antagonistic activity in the GPCR screen” value [10] was “inhibited”.

With COC(=O)[C@@H]1[C@H]2C[C@H]3OCc4ccccc4-n4c3c(c3ccccc34)CCN(C#N)C[C@@H]2CC[C@@H]1O [Y5a] the “antagonistic activity in the primary screen” value [1] was “inactive”.

For COC(=O)[C@@H]1[C@H]2C[C@@H]3N(CC[C@@]34C(=O)N(Cc3cccc(OC)c3)c3ccccc34)C[C@@H]2CC[C@@H]1OCc1cccc(OC)c1 [Y7g], the “antagonistic activity in the GPCR screen” value [8] was “not inhibited”, the “antagonistic activity in the GPCR screen” value [11] was “not inhibited” and the “antagonistic activity in the GPCR screen” value [10] was “not inhibited”. For the same compound, the “antagonistic activity in the primary screen” value [1] was “significant inhibitory activities”, the hit rate [1] was 2.4% and the “antagonistic activity in the GPCR screen” value [12] was “inhibited”. The “antagonistic activity in the GPCR screen” value [13] was “inhibited”.

In the case of COC(=O)[C@@H]1[C@H]2C[C@@H]([C@@]3(CCn4cc(CCCCO)nn4)C(=O)Nc4ccccc43)N(C#N)C[C@@H]2CC[C@@H]1O [Y2e], the “antagonistic activity in the primary screen” value [1] is reported as “inactive”.

In the case of COC(=O)[C@@H]1[C@H]2C[C@@H]3N(CC[C@@]34C(=O)N(c3cncc(OC)n3)c3ccccc34)C[C@@H]2CC[C@@H]1O [Y3h], the “antagonistic activity in the primary screen” value [1] is reported as “inactive”.

In the case of COC(=O)[C@@H]1[C@H]2C[C@@H](OCc3ccc(Br)cc3)c3[nH]c4ccccc4c3CCN(C#N)C[C@@H]2CC[C@@H]1O [Y6p], the inhibition at 20 µM [14] is reported as at least 80%, the inhibition at 20 µM [15] is reported as at least 80% and the “antagonistic activity in the primary screen” value [1] is reported as “significant inhibitory activities”. For the same compound, the hit rate [1] was 2.4%, the “number of GPCRs antagonized at ≥80% inhibition” value [1] was “four” and the inhibition at 20 µM [16] was at least 80%.
